Results on one molecule are retold here after patent US8809555B2, “Anti-leishmanial compound and anti-leishmanial drug” (Aoyama Gakuin Educational Foundation, priority 2010, dated 2014).

Assay [1] concerns Leishmania major promastigotes (MHOM/UZ/91/PM2). Briefly: Analysis of in vitro anti-leishmanial activity (growth inhibition of L. major/egfp promastigotes, fluorescence). The assay is classed as cell-based. To be noted: 25° C., 72 h, inhibition with Amphotericin B (positive control) defined as 100%, FIG. 9. The text has this:
The compounds represented by formulas (1) to (6), which had been isolated by the procedure described above, were subjected to an analysis of the physiological activity under the conditions that are described below. Leishmania major promastigotes (MHOM/UZ/91/PM2) were selected as the Leishmania protozoa, and a L. major/egfp promastigotes in which a fluorescent protein egfp gene had been introduced was used. The compounds mentioned above were used as samples. Thus, the growth inhibition rate was determined under the following conditions.
Promastigotes of transgenic Leishmania major (MHOM/UZ/91/PM2) expressing enhanced green fluorescent protein (L. major/egfp) were maintained at 25° C. in 199 medium (NISSUI Pharmaceutical, Tokyo, Japan) containing 10% fetal bovine serum, 25 mM Hepes buffer (MP Biomedicals, LLC) and 10 μg/mL […] (SIGMA-ALDRICH, inc., USA). […] Thereafter, fluorescence signals of L. major/egfp promastigotes were measured with a fluorescence microplate reader (Fluoroscan Ascent FL, Dainippon. Pharmaceutical Co., Osaka, Japan) with excitation at 485 nm and emission at 538 nm. […]

The test system of the next assay is L. major PM2. Briefly: Analysis of in vivo anti-leishmanial activity (leishmaniasis mouse model). To be noted: mice infected with 1×10^7 promastigotes of L. major PM2; 200 μg by peritoneal injection once a day for three weeks; size of ulcer, antibody titer in blood, protozoan DNA in blood (FIG. 10-12). On the procedure:
In order to evaluate the in vivo anti-leishmanial activity of the compound represented by formula (3), which had been isolated by the procedure described above, a leishmaniasis mouse model was used to investigate the therapeutic effect. Six-week old mice ([…], male, 6 animals per group) were infected with 1×10^7 cells of cultured promastigotes of L. major PM2. From the day after the infection day, the compound represented by the formula (3) was administered to each specimen in an amount of 200 μg by peritoneal injection. The administration schedule was such that the compound was continuously administered once a day for three weeks. Further, as control, the same analysis was carried out also for a treatment group to which Amphotericin B was administered, and for a treatment group to which none was administered.

Regarding `CC(C)=CCC/C(C)=C/CC/C(C)=C/CC/C(C)=C/CC1(CC(=O)O)CC(=O)C=CC1=O` (centres unmarked) [formula (3)], the growth inhibition rate entry in assay [1] was “almost equal to the growth inhibition rate of Amphotericin B”. The “in vivo anti-leishmanial activity” value in the assay on L. major PM2 is listed as “equal to that of Amphotericin B”.
